System: 4 PI3K isoforms (Human recombinant GST-PI3K)
Test: PI3K scintillation proximity assay, best IC50 obtained with the four isoforms (alpha, beta, delta, gamma)
Assay type: biochemical
Settings: for IC50: best IC50 obtained with the four isoforms of PI3K, read-out: Best potency measured on the 4 PI3K isoforms; for Best potency measured on the 4 PI3K isoforms, % inh @20 μM: inhibition at 20 μM

SMILES | IC50 | Best potency measured on the 4 PI3K isoforms, % inh @20 μM
O=C(c1nn(CC2CCCCC2)c2c1CS(=O)(=O)c1ccccc1-2)N1CCOCC1 [Example 51, 1-(cyclohexylmethyl)-3-(morpholin-4-ylcarbonyl)-1,4-dihydrothiochromeno[4,3-c]pyrazole 5,5-dioxide] | 0.509 µM | –
O=C(c1nn(CC2CCOCC2)c2c1CS(=O)(=O)c1ccccc1-2)N1CCOCC1 [Example 52, 3-(morpholin-4-ylcarbonyl)-1-(tetrahydro-2H-pyran-4-ylmethyl)-1,4-dihydrothiochromeno[4,3-c]pyrazole 5,5-dioxide] | 0.789 µM | –
COCCn1nc(C(=O)N2CCOCC2)c2c1-c1ccccc1S(=O)(=O)C2 [Example 53, 1-(2-methoxyethyl)-3-(morpholin-4-ylcarbonyl)-1,4-dihydrothiochromeno[4,3-c]pyrazole 5,5-dioxide] | 1.29 µM | –
O=C(c1nn(CCCO)c2c1CS(=O)(=O)c1ccccc1-2)N1CCOCC1 [Example 54, 3-[3-(morpholin-4-ylcarbonyl)-5,5-dioxidothiochromeno[4,3-c]pyrazol-1(4H)-yl]propan-1-ol] | 2.25 µM | –
O=C(c1nn(CCc2ccccn2)c2c1CS(=O)(=O)c1ccccc1-2)N1CCOCC1 [Example 55, 3-(morpholin-4-ylcarbonyl)-1-(2-pyridin-2-ylethyl)-1,4-dihydrothiochromeno[4,3-c]pyrazole 5,5-dioxide] | 1.92 µM | –
O=C(c1nn(-c2ccccc2)c2c1C(Cc1ccccc1)S(=O)(=O)c1ccccc1-2)N1CCOCC1 (stereo not shown) [Example 57, 4-benzyl-3-(morpholin-4-ylcarbonyl)-1-phenyl-1,4-dihydrothiochromeno[4,3-c]pyrazole 5,5-dioxide] | 2.48 µM | –
O=C(c1nn(-c2ccccc2)c2c1C(CC1CC1)S(=O)(=O)c1ccccc1-2)N1CCOCC1 (stereo not shown) [Example 58, 4-(cyclopropylmethyl)-3-(morpholin-4-ylcarbonyl)-1-phenyl-1,4-dihydrothiochromeno[4,3-c]pyrazole 5,5-dioxide] | 3.9 µM | –
CCC1c2c(C(=O)N3CCOCC3)nn(-c3ccccc3)c2-c2ccccc2S1(=O)=O (stereo not shown) [Example 59, 4-ethyl-3-(morpholin-4-ylcarbonyl)-1-phenyl-1,4-dihydrothiochromeno[4,3-c]pyrazole 5,5-dioxide] | 2.47 µM | –
CC1(C)c2c(C(=O)N3CCOCC3)nn(-c3ccccc3)c2-c2ccccc2S1(=O)=O [Example 60, 4,4-dimethyl-3-(morpholin-4-ylcarbonyl)-1-phenyl-1,4-dihydrothiochromeno[4,3-c]pyrazole 5,5-dioxide] | – | 52% in @20 μM
O=C(c1cccc(-n2nc(C(=O)N3CCOCC3)c3c2-c2ccccc2S(=O)(=O)C3)c1)N1CCOCC1 [Example 61, 3-(Morpholin-4-ylcarbonyl)-1-[3-(morpholin-4-ylcarbonyl)phenyl]-1,4-dihydrothiochromeno[4,3-c]pyrazole 5,5-dioxide] | 0.073 µM | –
NC(=O)c1cccc(-n2nc(C(=O)N3CCOCC3)c3c2-c2ccccc2S(=O)(=O)C3)c1 [Example 62, 3-[3-(Morpholin-4-ylcarbonyl)-5,5-dioxidothiochromeno[4,3-c]pyrazol-1(4H)-yl]benzamide] | 0.957 µM | –
Cn1nc(C(=O)N2CCOCC2)c2c1-c1cc(Br)ccc1S(=O)(=O)C2 [Example 63] | 1.04 µM | –
O=C(c1nn(-c2ccccc2)c2c1CS(=O)(=O)c1ccc(Br)cc1-2)N1CCOCC1 [Example 64] | 1.3 µM | –
COc1cc(OC)cc(-n2nc(C(=O)N3CCOCC3)c3c2-c2ccccc2S(=O)(=O)C3)c1 [Example 67] | – | 54% inh @20 μM
N#Cc1cccc(-n2nc(C(=O)N3CCOCC3)c3c2-c2ccccc2S(=O)(=O)C3)c1 [Example 68] | 0.376 µM | –
CN(C)CCCn1nc(C(=O)N2CCOCC2)c2c1-c1ccccc1S(=O)(=O)C2 [Example 69, N,N-Dimethyl-3-[3-(morpholin-4-ylcarbonyl)-5,5-dioxidothiochromeno[4,3-c]pyrazol-1(4H)-yl]propan-1-amine] | 3.11 µM | –
CN1CCCC(Cn2nc(C(=O)N3CCOCC3)c3c2-c2ccccc2S(=O)(=O)C3)C1 (stereo not shown) [Example 70, 1-[(1-Methylpiperidin-3-yl)methyl]-3-(morpholin-4-ylcarbonyl)-1,4-dihydrothiochromeno[4,3-c]pyrazole 5,5-dioxide] | 6.05 µM | –
CN1CCCC1CCn1nc(C(=O)N2CCOCC2)c2c1-c1ccccc1S(=O)(=O)C2 (stereo not shown) [Example 71, 1-[2-(1-Methylpyrrolidin-2-yl)ethyl]-3-(morpholin-4-ylcarbonyl)-1,4-dihydrothiochromeno[4,3-c]pyrazole 5,5-dioxide] | 1.23 µM | –
O=C(c1nn(CCN2CCOCC2)c2c1CS(=O)(=O)c1ccccc1-2)N1CCOCC1 [Example 72, 3-(Morpholin-4-ylcarbonyl)-1-(2-morpholin-4-ylethyl)-1,4-dihydrothiochromeno[4,3-c]pyrazole 5,5-dioxide] | 0.795 µM | –
CC(C)(C)C1CCC(n2nc(C(=O)N3CCOCC3)c3c2-c2ccccc2S(=O)(=O)C3)CC1 (stereo not shown) [Example 94, 1-(4-tert-Butylcyclohexyl)-3-(morpholin-4-ylcarbonyl)-1,4-dihydrothiochromeno[4,3-c]pyrazole 5,5-dioxide] | 4.12 µM | –

Now from value to compound, other results behind:

IC50 | SMILES | Best potency measured on the 4 PI3K isoforms, % inh @20 μM
1.52 µM | O=C(c1nn(C2CCNCC2)c2c1CS(=O)(=O)c1ccccc1-2)N1CCOCC1 [Example 74] | –
3.01 µM | O=C(c1nn(C2CCCNC2)c2c1CS(=O)(=O)c1ccccc1-2)N1CCOCC1 (stereo not shown) [Example 75] | –
0.772 µM | CN1CCCC(n2nc(C(=O)N3CCOCC3)c3c2-c2ccccc2S(=O)(=O)C3)C1 (stereo not shown) [Example 77, 1-(1-Methylpiperidin-3-yl)-3-(morpholin-4-ylcarbonyl)-1,4-dihydrothiochromeno[4,3-c]pyrazole 5,5-dioxide] | –
0.469 µM | O=C(c1nn(C2CCCCCC2)c2c1CS(=O)(=O)c1ccccc1-2)N1CCOCC1 [Example 78, 1-Cycloheptyl-3-(morpholin-4-ylcarbonyl)-1,4-dihydrothiochromeno[4,3-c]pyrazole 5,5-dioxide] | –
1.9 µM | O=C(c1nn(C2CCCNCC2)c2c1CS(=O)(=O)c1ccccc1-2)N1CCOCC1 (stereo not shown) [Example 82] | –
4.64 µM | O=C(c1nn(C2CCNC2)c2c1CS(=O)(=O)c1ccccc1-2)N1CCOCC1 (stereo not shown) [Example 84] | –
1.13 µM | O=C(c1nn(-c2cccnc2)c2c1CS(=O)(=O)c1ccccc1-2)N1CCOCC1 [Example 88, 3-(Morpholin-4-ylcarbonyl)-1-pyridin-3-yl-1,4-dihydrothiochromeno[4,3-c]pyrazole 5,5-dioxide] | –
1.39 µM | COCCNc1ccc2c(c1)-c1c(c(C(=O)N3CCOCC3)nn1C1CCCCC1)CS2(=O)=O [Example 89] | –
0.512 µM | O=C(c1nn(C2CCC(O)CC2)c2c1CS(=O)(=O)c1ccccc1-2)N1CCOCC1 (stereo not shown) [Example 98, 4-[3-(Morpholin-4-ylcarbonyl)-5,5-dioxidothiochromeno[4,3-c]pyrazol-1(4H)-yl]cyclohexanol] | –
0.326 µM | O=C(c1nn(C2CCCOC2)c2c1CS(=O)(=O)c1ccccc1-2)N1CCOCC1 (stereo not shown) [Example 99] | –
0.876 µM | CC(=O)Nc1ccc2c(c1)-c1c(c(C(=O)N3CCOCC3)nn1-c1ccccc1)CS2(=O)=O [Example 100, N-[3-(Morpholin-4-ylcarbonyl)-5,5-dioxido-1-phenyl-1,4-dihydrothiochromeno[4,3-c]pyrazol-8-yl]acetamide] | –
1.92 µM | COCCN1CCC(n2nc(C(=O)N3CCOCC3)c3c2-c2ccccc2S(=O)(=O)C3)CC1 [Example 101, 1-[1-(2-Methoxyethyl)piperidin-4-yl]-3-(morpholin-4-ylcarbonyl)-1,4-dihydrothiochromeno[4,3-c]pyrazole 5,5-dioxide] | –
5.27 µM | Cn1nc(C(=O)N2CCOCC2)c2c1-c1ccccc1S(=O)(=O)C2Cc1ccccc1 (stereo not shown) [Example 111, 4-Benzyl-1-methyl-3-(morpholin-4-ylcarbonyl)-1,4-dihydrothiochromeno[4,3-c]pyrazole 5,5-dioxide] | –
5.07 µM | COCCCC1c2c(C(=O)N3CCOCC3)nn(-c3ccccc3)c2-c2ccccc2S1(=O)=O (stereo not shown) [Example 112, 4-(3-Methoxypropyl)-3-(morpholin-4-ylcarbonyl)-1-phenyl-1,4-dihydrothiochromeno[4,3-c]pyrazole 5,5-dioxide] | –
3.35 µM | COc1ccc2c(c1)-c1c(c(C(=O)N3CCOCC3)nn1-c1ccccc1)CS2(=O)=O [Example 113, 8-Methoxy-3-(morpholin-4-ylcarbonyl)-1-phenyl-1,4-dihydrothiochromeno[4,3-c]pyrazole 5,5-dioxide] | –
4.28 µM | CN1CCN(C(=O)c2ccc3c(c2)-c2c(c(C(=O)N4CCOCC4)nn2-c2ccccc2)CS3(=O)=O)CC1 [Example 114, 8-[(4-Methylpiperazin-1-yl)carbonyl]-3-(morpholin-4-ylcarbonyl)-1-phenyl-1,4-dihydrothiochromeno[4,3-c]pyrazole 5,5-dioxide] | –
3.73 µM | CN(C)C(=O)c1ccc2c(c1)-c1c(c(C(=O)N3CCOCC3)nn1-c1ccccc1)CS2(=O)=O [Example 115, N,N-Dimethyl-3-(morpholin-4-ylcarbonyl)-1-phenyl-1,4-dihydrothiochromeno[4,3-c]pyrazole-8-carboxamide 5,5-dioxide] | –
3.03 µM | O=C(c1ccc2c(c1)-c1c(c(C(=O)N3CCOCC3)nn1-c1ccccc1)CS2(=O)=O)N1CCOCC1 [Example 116, 3,8-Bis(morpholin-4-ylcarbonyl)-1-phenyl-1,4-dihydrothiochromeno[4,3-c]pyrazole 5,5-dioxide] | –
3.41 µM | O=C(c1ccc2c(c1)-c1c(c(C(=O)N3CCOCC3)nn1-c1ccccc1)CS2(=O)=O)N1CCCCC1 [Example 117, 3-(Morpholin-4-ylcarbonyl)-1-phenyl-8-(piperidin-1-ylcarbonyl)-1,4-dihydrothiochromeno[4,3-c]pyrazole 5,5-dioxide] | –
1.31 µM | CS(=O)(=O)Nc1ccc2c(c1)-c1c(c(C(=O)N3CCOCC3)nn1-c1ccccc1)CS2(=O)=O [Example 118, N-[3-(Morpholin-4-ylcarbonyl)-5,5-dioxido-1-phenyl-1,4-dihydrothiochromeno[4,3-c]pyrazol-8-yl]methanesulfonamide] | –
